Laboratory results published in paper PMC6325200, “Effects of Microplate Type and Broth Additives on Microdilution MIC Susceptibility Assays” (Antimicrobial Agents and Chemotherapy, 2018).

Legend:
Experiment in all cases: microbe, parasite or virus in culture
E. coli ATCC 25922 = conditions: n = 2
Experimental: A positive control of a row of just the bacteria and a negative control of only the medium were included for every plate tested.
The compounds along with standard antibiotics were serially diluted 2-fold across the 96-well plates. […] A sample of each culture was then diluted 40-fold in fresh MH broth (in presence and absence of Tween) and incubated at 37°C for 2 to 3 h.
For experiments in the presence of surfactant, 2% beractant (25 mg/ml) was added to the mid-log-phase cultures and mixed gently and added to all the 96-well plates. For experiments in the presence of serum, a mixture of 50% of human serum along with 50% MHB was prepared and used throughout the experiment.

P. aeruginosa ATCC 10145 = conditions: Pseudomonas aeruginosa, n = 2
How it was run: (§1)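 MH broth with or without Tween received a 40-fold dilution of each culture, held at 37°C for 2–3 h. Twofold dilution series of the compounds and standard antibiotics are run in 96-well plates.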

K. pneumoniae ATCC 13883 = conditions: Klebsiella pneumoniae, n = 2
How it was run: as §1

A. baumannii ATCC 19606 = conditions: Acinetobacter baumannii, n = 2
How it was run: as §1

Measured: MIC

Cc1onc(-c2ccccc2)c1C(=O)N[C@@H]1C(=O)N2[C@@H]1SC(C)(C)[C@@H]2C(=O)O [Oxacillin, oxacillin]
> 64 µg/mL: E. coli ATCC 25922; Corning NBS plate, MHB +0.002% T80, no further additive | E. coli ATCC 25922; Corning NBS plate, MHB −T80, no additive | E. coli ATCC 25922; Corning PS plate, MHB +0.002% T80, no further additive | E. coli ATCC 25922; Corning PS plate, MHB −T80, no additive | E. coli ATCC 25922; Corning TC plate, MHB +0.002% T80, no further additive | E. coli ATCC 25922; Corning TC plate, MHB −T80, no additive | E. coli ATCC 25922; Escherichia coli, ATCC25922, 24 h, Corning NBS, MH + 2% LHB, 2% LS | E. coli ATCC 25922; Escherichia coli, ATCC25922, 24 h, Corning NBS, MH + 2% LHB, 50% HS | E. coli ATCC 25922; Escherichia coli, ATCC25922, 24 h, Corning NBS, MH + 2% LHB, no additive | E. coli ATCC 25922; Escherichia coli, ATCC25922, 24 h, Corning NBS, MH + T80, 2% LS | E. coli ATCC 25922; Escherichia coli, ATCC25922, 24 h, Corning NBS, MH + T80, 50% HS | E. coli ATCC 25922; Escherichia coli, ATCC25922, 24 h, Corning PS, MH + 2% LHB, 2% LS | E. coli ATCC 25922; Escherichia coli, ATCC25922, 24 h, Corning PS, MH + 2% LHB, 50% HS | E. coli ATCC 25922; Escherichia coli, ATCC25922, 24 h, Corning PS, MH + 2% LHB, no additive | E. coli ATCC 25922; Escherichia coli, ATCC25922, 24 h, Corning PS, MH + T80, 2% LS | E. coli ATCC 25922; Escherichia coli, ATCC25922, 24 h, Corning PS, MH + T80, 50% HS | E. coli ATCC 25922; Escherichia coli, ATCC25922, 24 h, Corning TC, MH + 2% LHB, 2% LS | E. coli ATCC 25922; Escherichia coli, ATCC25922, 24 h, Corning TC, MH + 2% LHB, 50% HS | E. coli ATCC 25922; Escherichia coli, ATCC25922, 24 h, Corning TC, MH + 2% LHB, no additive | E. coli ATCC 25922; Escherichia coli, ATCC25922, 24 h, Corning TC, MH + T80, 2% LS | E. coli ATCC 25922; Escherichia coli, ATCC25922, 24 h, Corning TC, MH + T80, 50% HS | E. coli ATCC 25922; Escherichia coli, ATCC25922, 24 h, Trek PS, MH + 2% LHB, 2% LS | E. coli ATCC 25922; Escherichia coli, ATCC25922, 24 h, Trek PS, MH + 2% LHB, 50% HS | E. coli ATCC 25922; Escherichia coli, ATCC25922, 24 h, Trek PS, MH + 2% LHB, no additive | E. coli ATCC 25922; Escherichia coli, ATCC25922, 24 h, Trek PS, MH + T80, 2% LS | E. coli ATCC 25922; Escherichia coli, ATCC25922, 24 h, Trek PS, MH + T80, 50% HS | E. coli ATCC 25922; Escherichia coli, ATCC25922, Corning NBS plate, MHB +0.002% T80, no further additive | E. coli ATCC 25922; Escherichia coli, ATCC25922, Corning NBS plate, MHB −T80, no additive | E. coli ATCC 25922; Escherichia coli, ATCC25922, Corning NBS, MH, 2% LS | E. coli ATCC 25922; Escherichia coli, ATCC25922, Corning NBS, MH, 50% HS | E. coli ATCC 25922; Escherichia coli, ATCC25922, Corning PS plate, MHB +0.002% T80, no further additive | E. coli ATCC 25922; Escherichia coli, ATCC25922, Corning PS plate, MHB −T80, no additive | E. coli ATCC 25922; Escherichia coli, ATCC25922, Corning PS, MH, 2% LS | E. coli ATCC 25922; Escherichia coli, ATCC25922, Corning PS, MH, 50% HS | E. coli ATCC 25922; Escherichia coli, ATCC25922, Corning TC plate, MHB +0.002% T80, no further additive | E. coli ATCC 25922; Escherichia coli, ATCC25922, Corning TC plate, MHB −T80, no additive | E. coli ATCC 25922; Escherichia coli, ATCC25922, Corning TC, MH, 2% LS | E. coli ATCC 25922; Escherichia coli, ATCC25922, Corning TC, MH, 50% HS | E. coli ATCC 25922; Escherichia coli, ATCC25922, Nunc PS plate, MHB +0.002% T80 | E. coli ATCC 25922; Escherichia coli, ATCC25922, Nunc PS plate, MHB −T80 | E. coli ATCC 25922; Escherichia coli, ATCC25922, Nunc U TC plate, MHB +0.002% T80 | E. coli ATCC 25922; Escherichia coli, ATCC25922, Nunc U TC plate, MHB −T80 | E. coli ATCC 25922; Escherichia coli, ATCC25922, Nunc flat TC plate, MHB +0.002% T80 | E. coli ATCC 25922; Escherichia coli, ATCC25922, Nunc flat TC plate, MHB −T80 | E. coli ATCC 25922; Escherichia coli, ATCC25922, Trek PS plate, MHB +0.002% T80, no further additive | E. coli ATCC 25922; Escherichia coli, ATCC25922, Trek PS plate, MHB −T80, no additive | E. coli ATCC 25922; Escherichia coli, ATCC25922, Trek PS, MH, 2% LS | E. coli ATCC 25922; Escherichia coli, ATCC25922, Trek PS, MH, 50% HS | P. aeruginosa ATCC 10145; ATCC10145, Corning NBS, MHB +T80 | P. aeruginosa ATCC 10145; ATCC10145, Corning NBS, MHB -T80 | P. aeruginosa ATCC 10145; ATCC10145, Corning PS, MHB +T80 | P. aeruginosa ATCC 10145; ATCC10145, Corning PS, MHB -T80 | P. aeruginosa ATCC 10145; ATCC10145, Corning TC, MHB +T80 | P. aeruginosa ATCC 10145; ATCC10145, Corning TC, MHB -T80 | K. pneumoniae ATCC 13883; ATCC13883, Corning NBS, MHB +T80 | K. pneumoniae ATCC 13883; ATCC13883, Corning NBS, MHB -T80 | K. pneumoniae ATCC 13883; ATCC13883, Corning PS, MHB +T80 | K. pneumoniae ATCC 13883; ATCC13883, Corning PS, MHB -T80 | K. pneumoniae ATCC 13883; ATCC13883, Corning TC, MHB +T80 | K. pneumoniae ATCC 13883; ATCC13883, Corning TC, MHB -T80 | A. baumannii ATCC 19606; ATCC19606, Corning NBS, MHB +T80 | A. baumannii ATCC 19606; ATCC19606, Corning NBS, MHB -T80 | A. baumannii ATCC 19606; ATCC19606, Corning PS, MHB +T80 | A. baumannii ATCC 19606; ATCC19606, Corning PS, MHB -T80 | A. baumannii ATCC 19606; ATCC19606, Corning TC, MHB +T80 | A. baumannii ATCC 19606; ATCC19606, Corning TC, MHB -T80
